Experiments:
[1] = biological target: T1, Sdh (succinate dehydrogenase; complex II) (Mus musculus, UniProt Q8K2B3); experiment: complex II enzyme activity microplate assay, Lineweaver-Burk plot; assay type: biochemical; details: sodium succinate hexahydrate varied in activity buffer with phospholipid mixture
[2] = biological target: T1, Sdh (succinate dehydrogenase; complex II); experiment: complex II enzyme activity microplate assay, Dixon plot; assay type: biochemical

T1 sequence (Q8K2B3 43-664): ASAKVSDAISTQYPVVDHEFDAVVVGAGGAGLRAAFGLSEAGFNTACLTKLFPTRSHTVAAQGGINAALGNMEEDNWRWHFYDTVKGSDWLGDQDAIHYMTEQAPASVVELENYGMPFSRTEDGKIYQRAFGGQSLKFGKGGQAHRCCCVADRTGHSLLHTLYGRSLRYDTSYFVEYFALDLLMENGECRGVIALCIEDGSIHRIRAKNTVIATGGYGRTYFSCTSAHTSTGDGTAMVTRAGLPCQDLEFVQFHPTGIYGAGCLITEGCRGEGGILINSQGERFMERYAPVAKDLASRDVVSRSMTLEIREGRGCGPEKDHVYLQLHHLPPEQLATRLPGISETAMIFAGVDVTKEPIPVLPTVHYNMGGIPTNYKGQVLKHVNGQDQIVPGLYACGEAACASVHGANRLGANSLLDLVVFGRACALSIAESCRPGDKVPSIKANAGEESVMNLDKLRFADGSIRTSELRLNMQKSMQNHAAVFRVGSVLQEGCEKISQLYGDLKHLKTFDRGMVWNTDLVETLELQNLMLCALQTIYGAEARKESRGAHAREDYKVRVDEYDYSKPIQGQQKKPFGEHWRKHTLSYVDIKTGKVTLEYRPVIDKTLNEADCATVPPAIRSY
T1 sequence (Q9CQA3 31-282 partner): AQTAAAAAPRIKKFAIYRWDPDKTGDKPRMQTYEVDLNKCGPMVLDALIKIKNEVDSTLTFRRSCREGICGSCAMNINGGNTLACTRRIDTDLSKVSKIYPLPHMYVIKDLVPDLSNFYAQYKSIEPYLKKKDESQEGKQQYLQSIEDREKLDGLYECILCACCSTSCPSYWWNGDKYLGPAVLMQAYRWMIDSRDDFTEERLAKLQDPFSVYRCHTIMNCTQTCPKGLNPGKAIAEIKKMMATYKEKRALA
T1 sequence (Q9CZB0 30-169 partner): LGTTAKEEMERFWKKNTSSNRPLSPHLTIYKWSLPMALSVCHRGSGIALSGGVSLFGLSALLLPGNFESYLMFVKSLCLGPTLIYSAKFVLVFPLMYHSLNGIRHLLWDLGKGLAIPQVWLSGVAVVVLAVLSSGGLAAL
T1 sequence (Q9CXV1 57-159 partner): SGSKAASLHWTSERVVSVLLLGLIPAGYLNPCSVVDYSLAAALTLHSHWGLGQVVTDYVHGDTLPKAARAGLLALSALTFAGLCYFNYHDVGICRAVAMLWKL

## O=C(O)CCC(=O)O [succinate]
[1]
  Km: 290 ± 800 µM

## C=C(CC(=O)O)C(=O)O [itaconate]
[2]
  Ki: 220 µM
